Reference: PMC5123075, “Structural and antitrypanosomal data of different carbasones of piperitone” (Data in Brief, 2016)

Key:
[1] = tested on: Chinese Hamster Ovary (CHO) cells; experiment: cytotoxicity assay on CHO cells (Stevigny et al.); format: cell-based; details: CHO cells
Excerpt: (§1) The Antitrypanosomal activity, toxicity test, and cytotoxicity assay were done according to Räz et al., Sleet and Brendel and Stevigny et al., respectively.

[2] = cytotoxicity assay on CHO cells (Stevigny et al.); format: cell-based, Chinese Hamster; details: Chinese Hamster Ovary (CHO) cells; Chinese Hamster Ovary cells; mean±SD of three experiments
Excerpt: as §1

[3] = cytotoxicity assay on WI38 cells (Stevigny et al.); format: cell-based, human; details: WI38 non-cancer fibroblast cells; human normal fibroblast cells; mean±SD of three experiments
Excerpt: as §1

[4] = tested on: human non cancer fibroblast cell line (WI38); experiment: cytotoxicity assay on WI38 cells (Stevigny et al.); format: cell-based; details: for Selectivity index WI38/CHO: IC50 (WI38) / IC50 (CHO), selectivity between the two tested cell lines; for Cytotoxicity WI38, Activity (verbal grade): WI38 cells
Excerpt: as §1

[5] = tested on: Artemia salina (Leach) larvae; experiment: toxicity test against Artemia salina Leach larvae (Sleet and Brendel); format: in vivo; details: larvae
Excerpt: as §1

[6] = as above; format: in vivo; details: Artemia salina Leach (larvae), in vivo; concentration providing 50% death of larvae; mean±SD of three experiments
Excerpt: as §1

[7] = tested on: Trypanosoma brucei brucei (Tbb); experiment: in vitro antitrypanosomal activity (Alamar Blue method of Räz et al.); format: cell-based; details: for Selectivity index CHO/tbb: IC50 (CHO) / IC50 (Tbb); for Selectivity index WI38/tbb: IC50 (WI38) / IC50 (Tbb); for Selectivity index LC50/tbb: LC50 (A. salina) / IC50 (Tbb); for Antitrypanosomal activity, activity (verbal grade): Tbb; for Antitrypanosomal activity, activity (verbal grade) / IC50: in vitro; for IC50: Trypanosoma brucei, concentration providing 50% death of parasites, mean±SD of three experiments
Excerpt: as §1

Structure (SMILES)	Cytotoxicity CHO, Activity (verbal grade) [1]	IC50 [2]	IC50 [3]	Selectivity index WI38/CHO [4]	Cytotoxicity WI38, Activity (verbal grade) [4]	Toxicity against A. salina Leach, Activity (verbal grade) [5]	LC50 [6]	Selectivity index CHO/tbb [7]	Selectivity index WI38/tbb [7]	Selectivity index LC50/tbb [7]	Antitrypanosomal activity, activity (verbal grade) [7]	IC50 [7]
CC1=C/C(=N\NC(N)=S)C(C(C)C)CC1 (stereo not drawn) [compound 2, piperitone thiosemicarbazone]	Cytotoxic	21.2 ± 1.37 µM	143 ± 4.89 µM	6.78	Not cytotoxic	Not toxic	86.7 ± 2.33 µM	0.28	1.92	1.16	moderate	74.6 ± 4.44 µM
CC1=C/C(=N\NC(N)=O)C(C(C)C)CC1 (stereo not drawn) [compound 1, piperitone semicarbazone]	Not toxic	214 ± 7.56 µM	481 ± 6.69 µM	2.25	Not cytotoxic	Not toxic	373 ± 6.6 µM	0.45	1.01	0.78	low	478 ± 7.19 µM
CC1=C/C(=N\NC(=S)Nc2ccccc2)C(C(C)C)CC1 (stereo not drawn) [compound 4, piperitone 4-phenyl thiosemicarbazone]	Moderate	65.3 ± 4.02 µM	134 ± 5.45 µM	2.05	Not cytotoxic	Toxic	32.2 ± 1.66 µM	6.00	12.30	2.96	trypanocidal	10.9 ± 2.52 µM
CC1=C/C(=N\NC(=O)Nc2ccccc2)C(C(C)C)CC1 (stereo not drawn) [compound 3, piperitone 4-phenyl semicarbazone]	Moderate	65.9 ± 4.8 µM	81 ± 9.15 µM	1.23	Not cytotoxic	Not toxic	85.5 ± 2.28 µM				trypanocidal	8.63 ± 0.81 µM
